Measurements reported in US5679321A, “Sialic acid/fucose based medicaments” (Glycomed Incorporated, priority 1995, dated 1997).

Key:
[1] = target: T1, L-selectin IgG chimera (Homo sapiens, UniProt P14151); experiment: ELISA: blocking of L-selectin IgG chimera binding to 2,3sLex glycolipid
T1 sequence (P14151 39-332 limits assumed): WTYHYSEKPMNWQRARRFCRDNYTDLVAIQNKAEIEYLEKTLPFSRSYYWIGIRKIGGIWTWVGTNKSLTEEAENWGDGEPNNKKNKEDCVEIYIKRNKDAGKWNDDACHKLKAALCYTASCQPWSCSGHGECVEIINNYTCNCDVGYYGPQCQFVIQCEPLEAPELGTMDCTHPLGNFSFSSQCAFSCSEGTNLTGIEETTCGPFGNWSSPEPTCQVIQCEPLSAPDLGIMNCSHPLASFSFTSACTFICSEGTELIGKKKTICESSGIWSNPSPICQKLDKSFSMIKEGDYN
Source text: (§1) An ELISA assay was employed that uses recombinant fusion proteins composed of extracellular portions of the human selectins joined to human immunoglobulin heavy chain CH3, CH2, and hinge regions. See, for example, Walz et al., Science (1990) 250:1132; Aruffo et al., Cell (1991) 67:35; Aruffo et al., Proc. Natl. Acad. Sci. USA (1992) 89:2292. The assay is well known in the art, and generally consists of the following three steps:
(§2) I. 2,3sLex glycolipid (25 picomole/well) was transferred into microtiter wells as solutions and then evaporated off. Excess, which remained unattached, was washed off with water. The wells were then blocked with 5% BSA at room temperature for an hour and then washed with PBS containing 1 mM calcium.
II. […]
(§3) The positive control is the signal produced by the soluble receptor when it is allowed to react with 2,3sLex glycolipid in the microtiter wells in the absence of any inhibitor. […] The signal produced by the receptor that had been previously treated with an inhibitor (recorded as O.D.), was divided by the signal produced by the positive control and multiplied by 100 to calculate the % receptor bound to the well, or as expressed in the figures, the per cent of control binding. […]

[2] = test system: neutrophil migration to the peritoneal cavity; experiment: murine thioglycollate induced peritonitis model; assay type: in vivo, female Swiss Webster mice; conditions: FIG. 7; for inhibition of neutrophil migration into the peritoneum: compound in PBS by tail vein, thioglycollate intraperitoneally, cells counted after three hours
Source text: The efficaciousness of GM 1221, and GM 1398 was shown using a murine thioglycollate induced peritonitis model. The assay materials and methods are known in the art, or are generally described by Lewinsohn, D. et al., J. Immun., 138:4313-4321 (1987), or Watson, S. et.al., Nature 349:164-166 (1991).
This assay measures the abili:ty of the compounds to inhibit neutrophil migation to the peritoneal cavity, the migration being initiated by the presence of thioglycollate in the peritoneal cavity. Thioglycollate is a known and effective inflammatory agent that causes neutrophil migration into the mouse peritoneum when it is administered intraperitoneally. Lewinsohn, D. et al., J. Immun. (1987) 138:4313-4321.
Briefly, female Swiss Webster mice weighing about 25 grams were injected in the tail vein with 200 ul of phosphate buffered saline (PBS) with or without the appropriate compound. The pH of the solutions was adjusted to neutrality by the addition of either NaOH or HCL and sterilized by filtration through a 0.2 u filter.
Immediately following injection with the appropriate compound or PBS, the mice were injected intraperitoneally with 1 ml of thioglycollate medium prepared as described by the manufacturer, BBL. Three hours following injection of the thioglycollate solution the mice were sacrificed by CO2 asphyxiation, and the number of cells in the peritoneum removed by lavage with 5 ml of heparinized (5U/ml) 0.9%. sodium chloride solution containing 0.1% bovine serum albumin. Cell number was determined using a Coulter Counter. The cells were prepared for counting by diluting the lavage fluid with 1:50 of a commercial physiological isotonic solution, Isoton II, and the cells lysed by adding S/P Lysing and Hemoglobin Reagent (1:100 final dilution). Cell nuclei were counted in a sized window with lower and upper limits set at 3.9 and 5.7 um, respectively.

[3] = test system: E-selectin IgG chimera; experiment: ELISA: blocking of E-selectin IgG chimera binding to 2,3sLex glycolipid; parameters: species or system human; conditions: FIG. 4; several concentrations
Source text: as §1, §2
II. […]
as §3

CC(OCCCCCCOC1O[C@@H](C)[C@@H](O)[C@@H](O)[C@@H]1O)C(=O)O (stereo partly drawn) [GM 1221]
inhibitory activity on L-selectin binding at all four concentrations tested ([1]; FIG. 6, all four concentrations of the compound tested): significant inhibitory activity | inhibition of neutrophil migration into the peritoneum [2]: inhibit neutrophil migration into the peritoneum

CC(=O)NC1C(O)CC(OCCCCCCOC2OC(C)C(O)C(O)C2O)(C(=O)O)OC1C(O)C(O)CO [GM 1398, 1-O-α-Neu5Ac-(6-O-α-L-Fucopyranosyl)-Hexane]
inhibition of E-selectin binding to 2,3sLex glycolipid (per cent of control binding) [3]: inhibit E-selectin binding | inhibition of L-selectin binding to 2,3sLex glycolipid (per cent of control binding) ([1]; FIG. 5 and FIG. 6, several concentrations): inhibit L-selectin binding in a concentration dependent manner | inhibition of neutrophil migration into the peritoneum [2]: inhibit neutrophil migration into the peritoneum | more neutrophil migration inhibited than GM 1221 ([2]; relative to GM 1221): about 30%
